Measurements taken from US20250034218A1, “ANTIMICROBIAL PEPTIDES” (BiomEdit, LLC, priority 2021, published 2025).
Ends that are not written are not given here.

How the values were obtained:
[1] = test system: Y. ruckeri; conditions: injection before exposure to Y. ruckeri; compared to non-treated fish; cited from earlier work
[2] = test system: Eimeria; experiment: Inhibition of Eimeria parasites; format: cell-based; conditions: Eimeria (Coccidiosis, poultry)
Method: The effect of Cap 18 peptides and any variants thereof is tested on Eimeria. An exemplary study is provided with results depicted in FIG. 4. Three independent experiments were conducted with CAP18 peptides—designated Cap18a, Cap18b and Cap18c. The CAP18 peptides were compared with monensin as a positive control. Three independent experiments with monensin (designated Mona, Monb and Monc).

[3] = test system: Giardia; experiment: Giardia plate assay, % of control (Table 3); format: cell-based; conditions: plate G7
Description: Data comparing AMP01 (wild type CAP 18 peptide (SEQ ID NO: 1) with various other agents is tabulated in Table 3. NTZ corresponds to nitazoxanide. ALB corresponds to albendazole.

[4] = test system: M. haemolytica; format: cell-based, Mannheimia haemolytica; conditions: plate assay, FIG. 2B
Method: (§1) CAP18 peptide (wild type peptide also herein designated as AMP01) has application and utility for multiple indications in livestock, poultry & aqua species. […] Cap18 peptide is active against viruses of significance for the animal industry, such as PRRSV (PRRS, swine) (FIG. 2C). […] FIG. 3 depicts activity of CAP18 peptide (AMP01) against Giardia.
(§2) Antimicrobial effect of CAP18 against BRD pathogens M. haemolytica and P. multocida was evaluated.

[5] = test system: Methanobacterium bryantii; experiment: In-vitro screening, growth of rumen methanogen; format: cell-based; conditions: FIGS. 10A and 10B; BES as positive control
Description: BES, a known methanogen inhibitor shown in FIG. 10C, was used as a positive control.

[6] = test system: Giardia trophozoites; experiment: Giardia trophozoite test tube assay, light microscopy; format: cell-based; conditions: AMP01 100 μM, FOR 5 μM
Method: Test tube with a confluent layer of trophozoites is treated with AMP01 (100 μM). Light microscopy, counting of detached dead or alive (i.e. motile) trophozoites is then conducted. Formononetin (5 μM; FOR) is used for comparison as a positive control.
The changes in morphology were still visible one day after the treatment and are depicted in FIG. 3 (photographs all taken at 100×). After 1 d, the trophozoites in the control tube (FIG. 3A) were fully alive (and overgrowing), as expected. […] The different sizes of the trophozoites can be noted by comparing the white circles. Similar effects were observed using cytotoxic anti-variant surface protein antibodies (Hemphil et al. 1996).

[7] = test system: P. mutlocida; format: cell-based, Pasteurella multocida
Method: as §1, §2

[8] = 90° C. for 30 minutes; cited from earlier work
[9] = test system: porcine reproductive and respiratory syndrome virus (PRRSV); experiment: Inhibition of PRRS virus infection; format: cell-based; conditions: 1:2 and 1:4 diluted
Method: Antibacterial peptide CAP18 was evaluated for activity inhibiting virus, particularly its antiviral effect on porcine reproductive and respiratory syndrome virus (PRRSV). Results are provided in Figure S. AMP01 polypeptide was evaluated at 1:2 and 1:4 diluted and shown to be effective.

[10] = test system: E. coli DH5alpha; format: cell-based, Escherichia coli; conditions: peptide treated with proteinase K at 37° C. before MIC assay
Method: CAP18 peptide variants single mutants were evaluated for resistance to proteinase K. Peptides were subjected to proteinase K treatment and then assessed for bacterial cell killing (against E. coli) in a MIC assay.
CAP18 variants were synthesized from GenScript, Inc, and solubilized in sterile purified water to a final concentration of 4 mg/ml. E. coli DH5alpha was grown overnight in 10 ml LB broth. Ten microliters of each CAP18 variant was treated with 2 μl of proteinase K (Qjagen, >600 mAU/ml) and incubated at 37° C. for 2 or 5 minutes in a PCR machine. The samples were then incubated at 98° C. for 5 minutes to inactivate proteinase K. An MIC assay was set up using proteinase K-treated CAP18 variants in a 96-well plate. Briefly, the peptides were serially diluted 2-fold in LB broth to achieve a final volume of 50 μl in each well and 50 μl of the E. coli DH5alpha culture adjusted to a concentration of 2×10^6 cells/ml was added into each well. Appropriate controls (media only control, no CAP18 control) were included on the same plate. The plates were incubated at 37° C. for 24-48 hours and MIC for each variant was recorded. The experiment was repeated 3 times.

[11] = test system: E. coli DH5alpha; format: cell-based, Escherichia coli; conditions: peptide treated with trypsin at 37° C. before MIC assay
Method: CAP18 peptide variants single mutants were evaluated for resistance to trypsin. Peptides were subjected to trypsin protease treatment and then assessed for bacterial cell killing (against E. coli) in a MIC assay.
CAP18 variants were synthesized from GenScript, Inc, and solubilized in sterile purified water to a final concentration of 4 mg/ml. E. coli DH5alpha was grown overnight in 10 ml LB broth. Ten microliters of each CAP18 variant was treated with 2 μl (or 2 μl of the 10-fold diluted trypsin) of trypsin (0.25%, Sigma Aldrich) and incubated at 37° C. for 2 or 5 minutes in a PCR machine. The samples were then incubated at 98° C. for 5 minutes to inactivate trypsin. An MIC assay was set up using trypsin-treated CAP18 variants in a 96-well plate. Briefly, the peptides were serially diluted 2-fold in LB broth to achieve a final volume of 50 μl in each well and 50 μl of the E. coli DH5alpha culture adjusted to a concentration of 2×10^6 cells/ml was added into each well. Appropriate controls (media only control, no CAP18 control) were included on the same plate. The plates were incubated at 37° C. for 24-48 hours and MIC for each variant was recorded. The experiment was repeated 3 times.

[12] = test system: E. coli DH5 alpha; format: cell-based, Escherichia coli
Method: A MIC assay was set up using heat treated CAP18 variants in a 96-well plate. […] Appropriate controls (media only control, no CAP18 control) were included on the same plate. The plates were incubated at 37° C. for 24-48 hours and MIC for each variant was recorded. The experiment was repeated 3 times.

Sequence: GLRKRLRKFRNKIKEKLKKIGQKIQGLLPKLAPRTDY [AMP01]
- mortality [1]: lower mortality
- inhibiting activity of parasites [2]: effective in inhibiting activity
- % of control MV ([3]; Conc 10 (uM or %)): 141.1%
- % of control MV ([3]; Conc 100 (uM or %)): 1.0%
- MIC [4]: 4 to 8 µg/mL
- growth of rumen methanogen [5]: inhibits the growth
- detachment of trophozoites ([6]; after 1 h): nearly complete detachment
- morphology and motility of detached trophozoites ([6]; after 1 h): crumbled, shrunken and immotile
- state of trophozoites ([6]; after 1 d): dead, shrunken and started to disintegrate
- MIC [7]: 4 to 8 µg/mL
- antimicrobial activity after heat treatment [8]: retain full antimicrobial activity
- antiviral effect on PRRSV [9]: effective
- Resistance to proteinase K (MIC, ug/ml) [10]: >400 µg/mL
- Resistance to trypsin (MIC, ug/ml) [11]: 25 µg/mL
- Thermotolerance at 90 for 5 minutes (MIC, ug/ml) [12]: 200 µg/mL
